Data set [1] concerns human hepatocytes. The data set can be described thus: Assay A: Metabolic Stability in Human Hepatocytes. The data set is classed as in vitro ADME. To be noted: cryopreserved human hepatocytes, 10^6 viable cells/mL, 1 μM compound, 37° C. The method, boiled down: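 Cryopreserved hepatocytes (10^6 viable cells/mL) at 37° C with 1 μM test compound, sampled 0.5–120 min and quenched in MeCN. Parent measured by LC-MS/MS; CLint (μL/min/10^6 cells) from the slope of ln(parent concentration) vs time.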

For data set [2], the target named is CYP2C9 (Homo sapiens (Human), UniProt P11712). The data set can be described thus: Assay B: Cytochrome P450 Inhibition 2C9.
Chain of CYP2C9 (P11712 whole entry): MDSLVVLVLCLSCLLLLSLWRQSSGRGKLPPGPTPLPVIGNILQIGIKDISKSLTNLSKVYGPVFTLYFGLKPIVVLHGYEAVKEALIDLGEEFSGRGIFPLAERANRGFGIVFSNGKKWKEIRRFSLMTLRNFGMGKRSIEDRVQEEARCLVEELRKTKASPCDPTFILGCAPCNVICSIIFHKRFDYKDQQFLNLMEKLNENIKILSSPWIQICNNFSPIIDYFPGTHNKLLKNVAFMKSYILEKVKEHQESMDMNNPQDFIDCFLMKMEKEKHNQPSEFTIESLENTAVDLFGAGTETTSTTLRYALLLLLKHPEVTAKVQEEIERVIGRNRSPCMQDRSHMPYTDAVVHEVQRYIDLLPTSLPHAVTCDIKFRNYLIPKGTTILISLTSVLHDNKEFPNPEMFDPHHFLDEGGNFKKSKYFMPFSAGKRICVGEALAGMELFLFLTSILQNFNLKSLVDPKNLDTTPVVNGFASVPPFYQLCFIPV
Method: A fluorescence-based method in 96-well format was used to determine the inhibition of 2C9 (Crespi, C. L. et al., Microtiter plate assays for inhibition of human, drug-metabolizing cytochromes P450. Anal Biochem 1997, 248 (1), 188-190. DOI: 10.1006/abio.1997.2145, which is incorporated herein by reference). The recombinant human enzymes used were prepared in house, except for CYP2D6 (CYPEX LTD, Dundee, UK). Different coumarin substrates, biotransformed into fluorescent metabolites, were used as probes for each individual CYP. A fluorescence plate reader (SPECTRAMAX GEMINIXS, MOLECULAR DEVICES, Sunnyvale, California, USA) was used to measure the levels of metabolites formed. A dilution series of the test substrates was prepared at eight different concentrations. For each CYP, a mixture of the enzyme, corresponding coumarin substrate, potassium phosphate buffer pH 7.4 and water (concentrations and volumes were CYP-dependent) were added to each well in a black 96-well plate. The test substrates at different concentrations were added. After 10 min pre-incubation, the co-factor NADPH was added to initiate the reaction. After 20-50 min (CYP and substrate-dependent) the reaction was terminated by addition of trisbase/MeCN (20:80). The plates were transferred to the fluorescence plate reader where the wavelengths were set individually for the different coumarin substrates and their respective fluorescent metabolite. The responses were exported to Excel where the IC50 curves were plotted (percent inhibition versus concentration) and IC50 values calculated for each test substrate and enzyme using XL-fit.
In data set [3] the target is over expressed HSD17β13 in HEK293S cells (Homo sapiens (Human), UniProt Q7Z5P4). The data set can be described thus: In Vitro 17bHSD13 Cell Assay. To be noted: HEK293S cells over expressing HSD17β13; estradiol to estrone conversion, 18 h, LC-MS/MS; read-out: 17bHSD1713 Cell assay IC50. Type of data set: cell-based. The method, boiled down:
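HEK293S cells overexpressing HSD17β13 convert estradiol to estrone; product read by LC-MS/MS (APCI, positive MRM) as AUC ratio estrone/(estrone+estradiol). Effect normalised between DMSO and maximal inhibition by a known inhibitor control; IC50 from curve fit.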

Data set [4] has as its target over expressed HSD17β9 in HEK293S cells (Homo sapiens (Human), UniProt Q92781). In words: In Vitro 17bHSD9 Cell Assay. To be noted: HEK293S cells over expressing HSD17β9; retinol to retinal conversion, 18 h, LC-MS/MS; read-out: 17bHSD9 Cell assay IC50. Type of data set: cell-based. The method, boiled down:
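HEK293S cells overexpressing HSD17β9 were plated at 10K cells/well in DMEM + 10% FBS and cultured 18 h. Retinol-to-retinal conversion in media was quantified by LC-MS/MS (MRM) as retinal/(retinal + retinol). IC50 was fitted after normalisation to DMSO and full inhibition by a reference inhibitor.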

A value given as a limit tells only on which side of the number the result lay.

Chain of over expressed HSD17β9 in HEK293S cells (Q92781 whole entry): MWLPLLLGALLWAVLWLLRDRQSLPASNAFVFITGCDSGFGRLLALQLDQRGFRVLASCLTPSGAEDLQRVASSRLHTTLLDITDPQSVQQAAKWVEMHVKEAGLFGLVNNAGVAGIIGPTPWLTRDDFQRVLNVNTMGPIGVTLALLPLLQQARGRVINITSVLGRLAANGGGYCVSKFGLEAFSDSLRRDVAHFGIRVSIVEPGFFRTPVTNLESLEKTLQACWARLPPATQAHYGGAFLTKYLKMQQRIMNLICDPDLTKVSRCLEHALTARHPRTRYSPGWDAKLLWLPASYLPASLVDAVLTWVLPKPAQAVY
Chain of over expressed HSD17β13 in HEK293S cells (Q7Z5P4 20-300): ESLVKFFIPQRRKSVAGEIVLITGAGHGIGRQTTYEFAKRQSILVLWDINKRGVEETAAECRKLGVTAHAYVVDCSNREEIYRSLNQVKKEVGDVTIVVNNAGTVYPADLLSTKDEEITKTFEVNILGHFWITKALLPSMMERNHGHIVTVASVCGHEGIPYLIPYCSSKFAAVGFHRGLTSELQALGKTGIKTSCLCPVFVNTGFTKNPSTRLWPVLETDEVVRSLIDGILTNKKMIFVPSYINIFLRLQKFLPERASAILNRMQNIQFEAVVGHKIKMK

In the case of `O=C(c1noc(-c2cc(F)c(F)c(O)c2F)n1)N1CCO[C@H]2CCC[C@@H]21` [Example 115, ((4aS,7aS)-Hexahydrocyclopenta[b][1,4]oxazin-4(4aH)-yl)(5-(2,4,5-trifluoro-3-hydroxyphenyl)-1,2,4-oxadiazol-3-yl)methanone], the “Assay A: Human Heps Met Clint GMean CLint (μl/min/1E6)” value in data set [1] is listed as 6.2 μl/min/1E6. The IC50 in data set [2] was 9.8 µM; in data set [3], 0.1 µM; in data set [4], 32.5 µM.
On to `N#Cc1cccc2c1CCN(C(=O)c1noc(-c3cc(F)c(F)c(O)c3F)n1)C2` [Example 66, 2-(5-(2,4,5-Trifluoro-3-hydroxyphenyl)-1,2,4-oxadiazole-3-carbonyl)-1,2,3,4-tetrahydroisoquinoline-5-carbonitrile], for which the “Assay A: Human Heps Met Clint GMean CLint (μl/min/1E6)” value in data set [1] is on record as 12.1 μl/min/1E6. Also, the IC50 in data set [2] was 3.1 µM; in data set [3], 0.25 µM; in data set [4], > 50 µM.
On to `N#Cc1c(C(=O)N2CCN(CCCOc3ccc(F)cc3)CC2)noc1-c1cc(F)c(F)c(O)c1F` [Example 14, 3-(4-(3-(4-Fluorophenoxy)propyl)piperazine-1-carbonyl)-5-(2,4,5-trifluoro-3-hydroxyphenyl)isoxazole-4-carbonitrile], for which the “Assay A: Human Heps Met Clint GMean CLint (μl/min/1E6)” value in data set [1] stood at 14.3 μl/min/1E6. Moreover, the IC50 in data set [2] is 1.1 µM; in data set [3], 0.26 µM; in data set [4], > 50 µM.
With `C[C@@H]1C[C@H](C)CN(C(=O)c2noc(-c3cc(F)c(F)c(O)c3F)n2)C1` [Example 37, ((3R,5S)-3,5-Dimethylpiperidin-1-yl)(5-(2,4,5-trifluoro-3-hydroxyphenyl)-1,2,4-oxadiazol-3-yl)methanone], the “Assay A: Human Heps Met Clint GMean CLint (μl/min/1E6)” value in data set [1] is given as 6.7 μl/min/1E6. Moreover, the figures for the IC50 in data set [2], in data set [3] and in data set [4] were 7.8 µM, 0.03 µM and 10 µM, respectively.
